From patent publication US8778939B2, “Compounds” (Glaxo Group Limited, priority 2009, dated 2014)

Tests used:
Format in all cases: biochemical
[1] = biological target: T1, 6His-Tev-LRRK2 (1326-2527) (Homo sapiens, UniProt Q5S007); assay: LRRK2 AlphaScreen desensitised protein substrate assay; conditions: excess of ATP present (2 mM ATP); read-out: pIC50 in the LRRK2 alphascreen desensitised protein substrate assay (converted)
T1 construct: A LRRK2 cDNA encoding residues 1326-2527 was received from Dundee University; made in house; host or cells: Spodoptera frugiperda (Sf9) insect cells, baculovirus
T1 sequence (Q5S007 1326-2527): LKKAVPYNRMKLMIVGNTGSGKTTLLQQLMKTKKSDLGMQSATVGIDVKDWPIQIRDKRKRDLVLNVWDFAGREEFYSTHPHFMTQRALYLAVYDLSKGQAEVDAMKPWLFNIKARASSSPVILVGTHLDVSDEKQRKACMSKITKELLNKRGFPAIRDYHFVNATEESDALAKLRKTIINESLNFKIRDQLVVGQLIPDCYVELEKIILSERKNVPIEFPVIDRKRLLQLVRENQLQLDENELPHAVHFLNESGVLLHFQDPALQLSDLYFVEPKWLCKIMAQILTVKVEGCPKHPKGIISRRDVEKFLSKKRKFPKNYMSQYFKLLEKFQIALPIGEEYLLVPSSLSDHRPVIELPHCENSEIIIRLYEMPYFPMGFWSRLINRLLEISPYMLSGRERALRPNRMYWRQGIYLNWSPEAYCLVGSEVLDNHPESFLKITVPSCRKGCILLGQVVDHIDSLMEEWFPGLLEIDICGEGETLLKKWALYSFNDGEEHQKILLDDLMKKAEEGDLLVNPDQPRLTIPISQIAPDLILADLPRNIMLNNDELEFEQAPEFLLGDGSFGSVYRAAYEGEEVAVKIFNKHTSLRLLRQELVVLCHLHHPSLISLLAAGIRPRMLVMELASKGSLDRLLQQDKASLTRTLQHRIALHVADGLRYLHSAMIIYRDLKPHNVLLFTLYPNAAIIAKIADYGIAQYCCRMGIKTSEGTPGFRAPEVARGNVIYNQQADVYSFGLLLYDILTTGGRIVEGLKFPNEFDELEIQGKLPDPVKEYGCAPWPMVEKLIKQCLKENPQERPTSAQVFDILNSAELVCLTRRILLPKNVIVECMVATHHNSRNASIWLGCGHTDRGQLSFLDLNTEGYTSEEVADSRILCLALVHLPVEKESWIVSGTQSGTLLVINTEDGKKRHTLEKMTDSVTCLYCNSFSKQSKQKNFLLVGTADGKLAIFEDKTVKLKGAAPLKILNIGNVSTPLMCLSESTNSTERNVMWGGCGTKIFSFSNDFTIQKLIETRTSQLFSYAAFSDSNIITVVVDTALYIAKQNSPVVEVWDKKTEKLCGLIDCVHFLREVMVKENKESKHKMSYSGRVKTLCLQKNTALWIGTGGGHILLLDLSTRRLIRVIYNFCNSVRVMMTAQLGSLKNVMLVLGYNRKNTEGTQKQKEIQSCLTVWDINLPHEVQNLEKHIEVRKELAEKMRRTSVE
Method in brief: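 AlphaScreen readout with phospho-Ezrin/Radixin/Moesin antibody after a 20 min room-temperature reaction at 2 mM ATP (substrate solution). Enzyme: 6His-Tev-LRRK2 (1326-2527) at 80 nM in enzyme solution, Hepes pH 7.2 buffer; test compound serially diluted 1:4 from 30 μM final.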

[2] = biological target: T1, 6His-Tev-LRRK2 (1326-2527); assay: LRRK2 peptide substrate assay; conditions: Biotin-LRRKtide peptide substrate, ATP at Km; read-out: pIC50 in the LRRK2 peptide substrate assay (converted)
Method in brief: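 Phosphorylation of biotin-LRRKtide/moesin substrate read by time-resolved FRET (Eu anti-rabbit IgG, streptavidin-APC, phospho-ERM Thr558 antibody; 665/620 nm). The 6His-Tev-LRRK2 (1326-2527) enzyme solution was 80 nM, in 50 mM Hepes pH 7.2 with 10 mM MgCl2 and 1 mM DTT. Incubation 1-2 h at room temperature; compounds tested up to 30 μM final, 1:4 dilutions.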

[3] = biological target: T1, 6His-Tev-LRRK2 (1326-2527); assay: LRRK2 AlphaScreen protein substrate assay; conditions: GST-PS-Moesin (400-577) substrate, ATP at Km; read-out: pIC50 in the LRRK2 alphascreen protein substrate assay (converted)
Procedure: a) 100 nl of a 1:4 serial dilution of test compound with a top final assay concentration of 30 μM is added to certain wells in a low volume 384 well black plate. 100 nl of DMSO is used in certain wells as controls.
b) 3 μl enzyme solution (80 nM purified recombinant 6His-Tev-LRRK2 (1326-2527) in assay buffer: 50 mM Hepes (pH 7.2), 10 mM MgCl2, 150 mM NaCl, 5% glycerol, 0.0025% triton X-100 and 1 mM DTT) is added to certain wells.
Plates are then incubated for a further 1-2 hours at room temperature (incubation time varies depending upon rate and linearity of reaction with differing enzyme batches).
d) 6 μl detection solution (1:250 dilution of AlphaLisa Protein A Acceptor beads (PerkinElmer), 1:64 dilution of AlphaLisa Gluthathione Donor beads (PerkinElmer) and 1:600 dilution (dilution determined on a batch to batch basis) of Phospho-Ezrin (Thr567)/Radixin (Thr564)/Moesin (Thr558) Polyclonal Antibody (New England Biolabs) in a buffer: 50 mM Hepes (pH 7.5), 250 mM NaCl, 60 mM EDTA, 1% PEG and 0.01% Brij 35) is added to each well. Plates are then incubated for a further 2 hours at room temperature in the dark before reading on an EnVision™ plate reader with AlphaScreen HTS turbo option module and AlphaScreen settings. Data is analysed using ActivityBase software (IDBS).

## N#Cc1cccc(COc2ccc(Br)cc2C(=O)Nc2cccnc2)c1 [Example 15, 5-Bromo-2-{[(3-cyanophenyl)methyl]oxy}-N-3-pyridinylbenzamide]
[1]
  IC50: > 25100 nM
[2]
  IC50: ≤ 100 nM
[3]
  IC50: ≤ 100 nM

## CNC(=O)c1cccc(NC(=O)c2cc(Br)ccc2OCc2ccccc2)c1 [Example 27, 5-Bromo-N-{3-[(methylamino)carbonyl]phenyl}-2-[(phenylmethyl)oxy]benzamide]
[1]
  IC50: > 25100 nM
[3]
  IC50: ≤ 7940 nM

## CC(C)c1ccc(OCc2ccccc2)c(C(=O)Nc2cccnc2)c1 [Example 1, 5-(1-Methylethyl)-2-[(phenylmethyl)oxy]-N-3-pyridinylbenzamide]
[1]
  IC50: ≤ 20000 nM
[2]
  IC50: ≤ 100 nM
[3]
  IC50: ≤ 100 nM

## CN1CCC(Oc2ccc(OCc3ccccc3)c(C(=O)Nc3cccnc3)c2)CC1 [Example 31, 5-[(1-Methyl-4-piperidinyl)oxy]-2-[(phenylmethyl)oxy]-N-3-pyridinylbenzamide]
[1]
  IC50: ≤ 20000 nM
[2]
  IC50: ≤ 100 nM
[3]
  IC50: ≤ 100 nM

## CN1CCN(c2ccc(OCc3ccccc3)c(C(=O)Nc3cccnc3)c2)CC1 [Example 32, 5-(4-Methyl-1-piperazinyl)-2-[(phenylmethyl)oxy]-N-3-pyridinylbenzamide]
[1]
  IC50: ≤ 20000 nM
[2]
  IC50: ≤ 10 nM
[3]
  IC50: ≤ 100 nM

## CCc1cccc(NC(=O)c2cc(Br)ccc2OCc2ccccc2)c1 [Example 20, 5-Bromo-N-(3-ethylphenyl)-2-[(phenylmethyl)oxy]benzamide]
[1]
  IC50: > 25100 nM
[3]
  IC50: ≤ 7940 nM

## N#Cc1ccc(OCc2ccccc2)c(C(=O)Nc2cccnc2)c1 [Example 8, 5-Cyano-2-[(phenylmethyl)oxy]-N-3-pyridinylbenzamide]
[1]
  IC50: ≤ 20000 nM
[2]
  IC50: ≤ 100 nM
[3]
  IC50: ≤ 100 nM

## O=C(Nc1cccnc1)c1cc(O)ccc1OCc1ccccc1 [Example 29, 5-Hydroxy-2-[(phenylmethyl)oxy]-N-3-pyridinylbenzamide]
[1]
  IC50: ≤ 20000 nM
[2]
  IC50: ≤ 100 nM
[3]
  IC50: ≤ 100 nM

## O=C(Nc1ccccn1)c1cc(Br)ccc1OCc1ccccc1 [Example 22, 5-Bromo-2-[(phenylmethyl)oxy]-N-2-pyridinylbenzamide]
[1]
  IC50: > 25100 nM
[3]
  IC50: > 25100 nM

## COc1ccccc1COc1ccc(Br)cc1C(=O)Nc1cccnc1 [Example 21, 5-Bromo-2-({[2-(methyloxy)phenyl]methyl}oxy)-N-3-pyridinylbenzamide]
[1]
  IC50: ≤ 20000 nM
[3]
  IC50: ≤ 7940 nM

## CN(C)CCOc1ccc(OCc2ccccc2)c(C(=O)Nc2cccnc2)c1 [Example 30, 5-{[2-(Dimethylamino)ethyl]oxy}-2-[(phenylmethyl)oxy]-N-3-pyridinylbenzamide]
[1]
  IC50: ≤ 20000 nM
[2]
  IC50: ≤ 100 nM
[3]
  IC50: ≤ 100 nM

## O=C(Nc1cccnc1)c1cc(Br)ccc1OCc1ccccc1 [Example 2, 5-Bromo-2-[(phenylmethyl)oxy]-N-3-Pyridinylbenzamide]
[1]
  IC50: ≤ 20000 nM
[2]
  IC50: ≤ 100 nM
[3]
  IC50: ≤ 100 nM

## O=C(Nc1cccnc1)c1cc(Br)ccc1OCc1cccc(Cl)c1 [Example 13, 5-Bromo-2-{[(3-chlorophenyl)methyl]oxy}-N-3-pyridinylbenzamide]
[1]
  IC50: > 25100 nM
[2]
  IC50: ≤ 100 nM
[3]
  IC50: ≤ 100 nM

## O=C(Nc1cccnc1)c1cc(Br)ccc1OCc1ccc(Cl)cc1 [Example 9, 5-Bromo-2-{[(4-chlorophenyl)methyl]oxy}-N-3-pyridinylbenzamide]
[1]
  IC50: ≤ 20000 nM
[2]
  IC50: ≤ 100 nM
[3]
  IC50: ≤ 100 nM

## N#Cc1ccccc1COc1ccc(Br)cc1C(=O)Nc1cccnc1 [Example 23, 5-Bromo-2-{[(2-cyanophenyl)methyl]oxy}-N-3-pyridinylbenzamide]
[1]
  IC50: ≤ 20000 nM
[3]
  IC50: ≤ 7940 nM

## O=C(Nc1cccnc1)c1cc(N2CCCCC2)ccc1OCc1ccccc1 [Example 33, 2-[(Phenylmethyl)oxy]-5-(1-piperidinyl)-N-3-pyridinylbenzamide]
[1]
  IC50: ≤ 20000 nM
[2]
  IC50: ≤ 100 nM
[3]
  IC50: ≤ 100 nM
